Laboratory results from patent US9545386B2, “Methods of treating infectious diseases” (SLIPPERY ROCK UNIVERSITY FOUNDATION, INC., priority 2007, dated 2017).
Converted amounts (≈) assume the structure as drawn.

Columns and labels:
T. avium trypomastigotes = test: Short-term behavioral study (swimming behavior and maneuverability); assay type: cell-based, Trypanosoma avium; conditions: 75 μl eryngial (1%) and Triton X-100 (0.04%) added to 75 μl T. avium; observed at 15-minute intervals for 1 hr
Experimental: A short-term behavioral study also was conducted by adding 75 μl of eryngial (1%) and Triton X-100 (0.04%) to 75 μl of L.N.S. with T. avium (1.0×10^5 trypomastigotes/ml). The swimming behavior and maneuverability of the organisms were observed microscopically in triplicate samples at 15-minute intervals for 1 hr. This was recorded with a digital video camera.

Escherichia coli = test: Antibacterial MIC, 96 well broth dilution; assay type: cell-based; conditions: E. coli (gram-negative), 24 hr, 0.02% Triton X-100, highest concentration tested 10 mg/ml
Experimental: (§1) Bacterial cultures were obtained from the American Type Culture Collection (ATCC), except for Streptococcus pyogenes, which was started from a Difco Bactrol disc. The other organisms were Enterococcus faecalis, Staphylococcus aureus, Escherichia coli, Salmonella typhimurium and Pseudomonas aeruginosa. Cultures were grown in Luria-Bertani (LB) broth. Fungi were obtained from Carolina Biological Supply Company (Aspergillus niger, Candida albicans and Cryptococcus neoformans); Presque Isle Cultures, Erie Pa. (Microsporum gypseum); or from ATCC (Penicillium marneffei). Fungal cultures were maintained in Sabouraud dextrose broth (SDB) or agar (SDA). All media components came from Difco.
(§2) Tests were done in flat-bottomed 96 well cell culture plates (Costar). All samples were done in duplicate. Eryngial was suspended in culture medium plus 0.04% Triton-X to make a 2% (20 mg/ml) suspension, which was passed through a 0.22 μm filter to make a uniform emulsion. Serial doubling dilutions of eryngial in culture medium plus 0.04% Triton-X were prepared, and 75 μl was added to each well. 75 μl of cell or spore suspensions in culture medium also were added to each well. The final concentration of Triton-X was 0.02%, and the final concentration of eryngial was 1% (10 mg/ml) at the highest concentration tested.
(§3) Overnight bacterial cultures in LB medium were diluted into fresh LB to an OD600 of 0.02 to 0.03, and then diluted 1000-fold again in LB. […] Blank wells for each concentration of eryngial were prepared with plain culture medium added.
(§4) The 96 well plates were incubated at 37° for 24 hr (in a candle jar for S. pyogenes), and the OD630 was read on an EL800 universal microplate reader (Bio-Tek Instruments). Readings from duplicate wells were averaged, and readings from duplicate blank wells for each concentration of eryngial were subtracted to generate the final values. The minimum inhibitory concentration (MIC, μg/ml) was defined as the well with the highest dilution of eryngial in which no growth was observed.

Pseudomonas aeruginosa = test: Antibacterial MIC, 96 well broth dilution; assay type: cell-based; conditions: P. aeruginosa (gram-negative), 24 hr, 0.02% Triton X-100, highest concentration tested 10 mg/ml
Experimental: as §1, §2, §3, §4

Salmonella typhimurium = test: Antibacterial MIC, 96 well broth dilution; assay type: cell-based; conditions: S. typhimurium (gram-negative), 24 hr, 0.02% Triton X-100, highest concentration tested 10 mg/ml
Experimental: as §1, §2, §3, §4

Aspergillus niger = test: Antifungal MIC/MFC, 96 well broth dilution; assay type: cell-based; conditions: A. niger; MIC and MFC not determined
Experimental: as §1, §2
(§5) Dimethyl sulfoxide (DMSO) also was used as a solvent for eryngial. A solution of 12.5% eryngial in DMSO was the initial solution. Doubling dilutions were carried out in DMSO. The DMSO-eryngial solutions were diluted 100-fold into growth medium, resulting in a final concentration of 1% DMSO, and 0.125% (1,250 μg/ml) eryngial as the highest concentration tested.
(§6) The yeast form fungi, Candida albicans and Cryptococcus neoformans, were grown overnight in SDB. Cell density was determined by counting in a hemacytometer. Cells were diluted in fresh SDB to a density of 10^4/ml, and 75 μl, or 7.5×10^2 cells, was added to each well. The filamentous form fungi, Aspergillus niger, Microsporum gypseum and Penicillium marneffei, were grown on SDA until spores formed. The surface of the culture was rinsed vigorously with sterile distilled water to make a spore suspension, which was counted with a hemacytometer. The spores were diluted into SDB at 10^4/ml, and 75 μl, or 7.5×10^2 spores, were added to each well. The 96 well plates were incubated at room temperature in a humidified chamber for up to 96 hr, and culture growth was monitored microscopically. Growth was documented by photomicrographs at 24 hr intervals, and by determining OD630 in the microplate reader as for the bacterial cultures.
(§7) To determine whether eryngial was merely inhibiting growth of the bacteria and fungi, or whether it also was having a killing effect, the minimum bactericidal concentrations (MBC, μg/ml) or minimum fungicidal concentrations (MFC, μg/ml) were determined. This was done by removing a 50 μl sample from a well after 24 hr (bacteria) or 96 hr (fungi) and diluting the samples in 5 ml of fresh culture medium. These tubes then were incubated at the appropriate temperature for 24-96 hr and observed for any signs of growth.

Candida albicans = test: Antifungal MIC/MFC, 96 well broth dilution; assay type: cell-based; conditions: C. albicans, 48-96 hr in vitro
Experimental: as §1, §2, §5, §6, §7

Cryptococcus neoformans = test: Antifungal MIC/MFC, 96 well broth dilution; assay type: cell-based; conditions: C. neoformans, 48-96 hr in vitro
Experimental: as §1, §2, §5, §6, §7

Microsporum gypseum = test: Antifungal MIC/MFC, 96 well broth dilution; assay type: cell-based; conditions: Nannizzia gypsea, M. gypseum, 48-96 hr in vitro
Experimental: as §1, §2, §5, §6, §7

Penicillium marneffei = test: Antifungal MIC/MFC, 96 well broth dilution; assay type: cell-based; conditions: Talaromyces marneffei, P. marneffei, 48-96 hr in vitro
Experimental: as §1, §2, §5, §6, §7

Q: For `CCCCCCCCC/C=C/C=O` [Eryngial, trans-2-dodecenal], which “swimming behavior and maneuverability of trypomastigotes” value (T. avium trypomastigotes) is on record?
A: Its value is “movement was completely stopped”.

Q: And the inhibited by eryngial (Escherichia coli)?
A: Its inhibited by eryngial is “none”.

Q: What about the inhibited by eryngial (Pseudomonas aeruginosa) of the same compound?
A: Its inhibited by eryngial is “none”.

Q: And the inhibited by eryngial (Salmonella typhimurium)?
A: Its inhibited by eryngial is “none”.

Q: What about the “growth in dilutions of the test compound” value (Aspergillus niger) of the same compound?
A: The value was “growth, albeit reduced, occurred in all dilutions”.

Q: And the MIC (Candida albicans)?
A: The MIC was 391 µg/mL (≈ 2140 µM).

Q: What about the MBC (Candida albicans; table title says MFCs) of the same compound?
A: Its MBC is 391 µg/mL (≈ 2140 µM).

Q: And the MIC (Cryptococcus neoformans)?
A: The MIC was 78 µg/mL (≈ 428 µM).

Q: And the MBC (Cryptococcus neoformans; table title says MFCs)?
A: Its MBC is 78 µg/mL (≈ 428 µM).

Q: What about the MIC (Microsporum gypseum) of the same compound?
A: Its MIC is 39 µg/mL (≈ 214 µM).

Q: What about the MBC (Microsporum gypseum; table title says MFCs) of the same compound?
A: The MBC was 39 µg/mL (≈ 214 µM).

Q: And the MIC (Penicillium marneffei)?
A: Its MIC is 39 µg/mL (≈ 214 µM).

Q: What about the MBC (Penicillium marneffei; table title says MFCs) of the same compound?
A: The MBC was 39 µg/mL (≈ 214 µM).
